Assay results as given in ChEMBL document CHEMBL1201862, “PubChem BioAssay data set” (2004).
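Step 1: Grow cells in 96-well plates. Step 2: Expose to compound for 48 hours at 5 concentrations. Step 3: Interpolate endpoints linearly; if unreached, use highest concentration. GI50 marks 50% less growth.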 Activity calls are given as the source filed them. No stated cut-off is given here; in the data, active = GI50 up to about 1.1 µM and inactive = higher.

Columns and labels:
Test in all cases: DTP human tumour cell line panel, 48 h
CAKI-1 = test system: CAKI-1
CCRF-CEM = test system: CCRF-CEM
DU-145 = test system: DU-145
HOP-62 = test system: HOP-62
Hs-578T = test system: Hs-578T
K562 = test system: K562
KM12 = test system: KM12
MDA-MB-231 = test system: MDA-MB-231
MOLT-4 = test system: MOLT-4
NCI/ADR-RES = test system: NCI/ADR-RES
OVCAR-3 = test system: OVCAR-3
PC-3 = test system: PC-3
SF-295 = test system: SF-295
SF-539 = test system: SF-539
SNB-75 = test system: SNB-75
SR = test system: SR
SW-620 = test system: SW-620
TK-10 = test system: TK-10
U-251 = test system: U-251
UACC-257 = test system: UACC-257

SMILES	GI50 (CAKI-1)	GI50 (CCRF-CEM)	GI50 (DU-145)	GI50 (HOP-62)	GI50 (Hs-578T)	GI50 (K562)	GI50 (KM12)	GI50 (MDA-MB-231)	GI50 (MOLT-4)	GI50 (NCI/ADR-RES)	GI50 (OVCAR-3)	GI50 (PC-3)	GI50 (SF-295)	GI50 (SF-539)	GI50 (SNB-75)	GI50 (SR)	GI50 (SW-620)	GI50 (TK-10)	GI50 (U-251)	GI50 (UACC-257)
COc1cccc(N(CN2C(=O)CCC2OC)C(C)=O)c1 (stereo not given)	> 100 µM (inactive)	> 100 µM (inactive)	> 100 µM (inactive)	> 100 µM (inactive)	> 100 µM (inactive)	> 100 µM (inactive)	> 100 µM (inactive)	> 100 µM (inactive)	> 100 µM (inactive)	> 100 µM (inactive)	> 100 µM (inactive)	> 100 µM (inactive)	> 100 µM (inactive)	> 100 µM (inactive)	> 100 µM (inactive)	> 100 µM (inactive)	> 100 µM (inactive)	> 100 µM (inactive)	> 100 µM (inactive)	> 100 µM (inactive)
[O-][S+](CCc1ccccc1)Nc1ccccc1 (stereo not given)	> 100 µM (inactive)	> 100 µM (inactive)	> 100 µM (inactive)	> 100 µM (inactive)	0.0406 µM (active)	> 100 µM (inactive)	> 100 µM (inactive)	> 100 µM (inactive)	> 100 µM (inactive)	58.5 µM (inactive)	> 100 µM (inactive)	> 100 µM (inactive)	> 100 µM (inactive)	> 100 µM (inactive)	> 100 µM (inactive)	> 100 µM (inactive)	> 100 µM (inactive)	> 100 µM (inactive)	> 100 µM (inactive)	99.3 µM (inactive)
Cc1cc(C)nc(NS(=O)(=O)c2ccc(NNC(=O)c3cccc4c(NNc5ccc(S(=O)(=O)Nc6nc(C)cc(C)n6)cc5)c5ccccc5nc34)cc2)n1	18.8 µM (inactive)	18.5 µM (inactive)	19.4 µM (inactive)	27.8 µM (inactive)	23.4 µM (inactive)	22.2 µM (inactive)	17.8 µM (inactive)	14.6 µM (inactive)	26 µM (inactive)	68.5 µM (inactive)	28.3 µM (inactive)	24.3 µM (inactive)	31.8 µM (inactive)	20.3 µM (inactive)	17.7 µM (inactive)	20.5 µM (inactive)	22.1 µM (inactive)	35.5 µM (inactive)	22.9 µM (inactive)	31 µM (inactive)
S=C(N/N=C(\c1ccccc1)c1ccccn1)NC1CCCCC1	0.834 µM (active)	0.322 µM (active)	29.3 µM (inactive)	12.2 µM (inactive)	> 35 µM (inactive)	0.5 µM (active)	13.1 µM (inactive)	1.57 µM (inactive)	0.54 µM (active)	0.423 µM (active)	2.75 µM (inactive)	1.4 µM (inactive)	26.5 µM (inactive)	3.08 µM (inactive)	65.3 µM (inactive)	> 26.1 µM (inactive)	1.19 µM (inactive)	0.849 µM (active)	0.979 µM (active)	2.24 µM (inactive)
O=C(N1CCN(c2ccccc2)CC1)N(C(=O)C1(c2ccc(Cl)cc2)CCCC1)S(=O)(=O)c1ccccc1	26.5 µM (inactive)	29.7 µM (inactive)	38.5 µM (inactive)	29.1 µM (inactive)	29.8 µM (inactive)	32.4 µM (inactive)	35.9 µM (inactive)	26.6 µM (inactive)	23.3 µM (inactive)	23.7 µM (inactive)	31.6 µM (inactive)	26.6 µM (inactive)	24.6 µM (inactive)	22.1 µM (inactive)	52.2 µM (inactive)	53.2 µM (inactive)	32 µM (inactive)	41.4 µM (inactive)	21.8 µM (inactive)	28.3 µM (inactive)
Cc1ncc([N+](=O)[O-])n1CCNC(=O)CCCn1cnc([N+](=O)[O-])n1	> 100 µM (inactive)	> 100 µM (inactive)	> 100 µM (inactive)	> 100 µM (inactive)	> 100 µM (inactive)	> 100 µM (inactive)	> 100 µM (inactive)	> 100 µM (inactive)	> 100 µM (inactive)	> 100 µM (inactive)	> 100 µM (inactive)	> 100 µM (inactive)	> 100 µM (inactive)	> 100 µM (inactive)	98.6 µM (inactive)	> 100 µM (inactive)	> 71.8 µM (inactive)	> 45.8 µM (inactive)	> 100 µM (inactive)	> 100 µM (inactive)
